Assay [1] deals with Calcium/calmodulin-dependent protein kinase kinase 2 (Homo sapiens) (UniProt Q96RR4). Conditions: at 10 µM.
The target in assay [2] is T1, Tyrosine-protein kinase Lyn (Homo sapiens, UniProt P07948). As to the kind of experiment: Selectivity interaction (KinomeScan (DiscoverX)) EUB0000695a LYN. The conditions noted are these: at 100 nM.
Assay [3] deals with Tyrosine-protein kinase Fgr (Homo sapiens) (UniProt P09769). The experiment in a line: Selectivity interaction (KinomeScan (DiscoverX)) EUB0000607a FGR. Conditions: at 10 µM.
For assay [4], the target named is Serine/threonine-protein kinase SIK3 (Homo sapiens) (UniProt Q9Y2K2). The conditions noted are these: at 10 µM.
The target in assay [5] is Calcium/calmodulin-dependent protein kinase type 1D (Homo sapiens) (UniProt Q8IU85). As to the kind of experiment: Selectivity interaction (Kinase panel (DSF assay)) EUB0001559a CAMK1D.
The target in assay [6] is Angiopoietin-1 receptor (Homo sapiens) (UniProt Q02763). The experiment in a line: Selectivity interaction (ProQinase) EUB0000171b TEK. The conditions noted are these: at 1 µM.
The target of assay [7] is Serine/threonine-protein kinase N1 (Homo sapiens, UniProt Q16512). The experiment in a line: Selectivity interaction (ProQinase) EUB0000171b PKN1.
Assay [8] has as its target T1, Tyrosine-protein kinase Lyn. The experiment in a line: Selectivity interaction (Ambit KINOMEscan and KiNATiv profiling in Jurkat cells) EUB0000090b LYN. In kind it is cell-based. The conditions noted are these: at 1 µM.
Assay [9] has as its target T2, Serine/threonine-protein kinase D1 (Homo sapiens) (UniProt Q15139).
T2 sequence (whole entry): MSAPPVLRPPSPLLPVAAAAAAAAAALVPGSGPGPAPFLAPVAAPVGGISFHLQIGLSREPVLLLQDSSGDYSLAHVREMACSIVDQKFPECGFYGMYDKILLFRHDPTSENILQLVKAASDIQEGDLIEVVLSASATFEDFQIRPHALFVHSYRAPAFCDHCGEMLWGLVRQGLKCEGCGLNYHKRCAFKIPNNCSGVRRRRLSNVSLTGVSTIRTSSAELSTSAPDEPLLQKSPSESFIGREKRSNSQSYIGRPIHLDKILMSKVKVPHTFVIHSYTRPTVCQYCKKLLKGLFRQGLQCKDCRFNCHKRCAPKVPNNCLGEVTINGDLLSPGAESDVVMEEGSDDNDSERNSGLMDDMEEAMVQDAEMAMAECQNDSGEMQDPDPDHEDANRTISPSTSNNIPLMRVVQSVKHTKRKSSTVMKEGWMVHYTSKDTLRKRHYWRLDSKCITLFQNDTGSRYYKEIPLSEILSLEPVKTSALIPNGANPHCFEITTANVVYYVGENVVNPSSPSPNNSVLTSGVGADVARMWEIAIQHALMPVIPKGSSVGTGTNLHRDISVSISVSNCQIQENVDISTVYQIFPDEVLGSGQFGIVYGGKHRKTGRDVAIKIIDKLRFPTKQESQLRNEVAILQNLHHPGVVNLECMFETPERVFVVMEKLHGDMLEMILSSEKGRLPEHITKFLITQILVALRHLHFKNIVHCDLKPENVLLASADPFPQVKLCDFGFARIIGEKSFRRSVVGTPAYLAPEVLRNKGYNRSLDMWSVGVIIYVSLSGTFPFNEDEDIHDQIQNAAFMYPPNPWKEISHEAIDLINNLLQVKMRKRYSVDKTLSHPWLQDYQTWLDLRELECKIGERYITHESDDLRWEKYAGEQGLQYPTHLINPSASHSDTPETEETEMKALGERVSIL
As to the kind of experiment: Selectivity interaction (KinomeScan (DiscoverX)) EUB0001049a PRKD1. The conditions noted are these: at 1 µM.

Assay [10] concerns the target Mitogen-activated protein kinase 3 (Homo sapiens, UniProt P27361). As to the kind of experiment: Selectivity interaction (KinomeScan (DiscoverX)) EUB0000618a MAPK3. The conditions noted are these: at 10 µM.
The target in assay [11] is T3, Serine/threonine-protein kinase RIO3 (Homo sapiens) (UniProt O14730).
T3 sequence (whole entry): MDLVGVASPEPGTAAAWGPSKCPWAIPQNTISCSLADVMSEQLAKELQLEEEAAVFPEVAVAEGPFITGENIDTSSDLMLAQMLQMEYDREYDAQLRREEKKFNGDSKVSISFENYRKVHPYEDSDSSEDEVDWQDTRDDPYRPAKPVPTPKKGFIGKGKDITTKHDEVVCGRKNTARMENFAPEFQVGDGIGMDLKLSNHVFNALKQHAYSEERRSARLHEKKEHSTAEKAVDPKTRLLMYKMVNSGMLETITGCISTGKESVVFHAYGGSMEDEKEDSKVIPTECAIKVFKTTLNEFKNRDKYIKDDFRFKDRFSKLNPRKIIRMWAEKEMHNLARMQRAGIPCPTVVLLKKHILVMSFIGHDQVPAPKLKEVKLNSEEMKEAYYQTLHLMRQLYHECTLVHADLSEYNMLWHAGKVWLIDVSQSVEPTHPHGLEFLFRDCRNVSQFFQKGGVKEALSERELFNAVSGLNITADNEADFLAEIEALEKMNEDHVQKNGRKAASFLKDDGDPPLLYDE
As to the kind of experiment: Selectivity interaction (KinomeScan (DiscoverX)) EUB0000092b RIOK3. The conditions noted are these: at 10 µM.

Assay [12] concerns the target Histone-lysine N-methyltransferase 2A (Homo sapiens) (UniProt Q03164). The experiment in a line: Selectivity interaction (Human bromodomain panel (DSF assay)) EUB0000233b MLL.

T1 sequence (P07948 2-512 limits assumed): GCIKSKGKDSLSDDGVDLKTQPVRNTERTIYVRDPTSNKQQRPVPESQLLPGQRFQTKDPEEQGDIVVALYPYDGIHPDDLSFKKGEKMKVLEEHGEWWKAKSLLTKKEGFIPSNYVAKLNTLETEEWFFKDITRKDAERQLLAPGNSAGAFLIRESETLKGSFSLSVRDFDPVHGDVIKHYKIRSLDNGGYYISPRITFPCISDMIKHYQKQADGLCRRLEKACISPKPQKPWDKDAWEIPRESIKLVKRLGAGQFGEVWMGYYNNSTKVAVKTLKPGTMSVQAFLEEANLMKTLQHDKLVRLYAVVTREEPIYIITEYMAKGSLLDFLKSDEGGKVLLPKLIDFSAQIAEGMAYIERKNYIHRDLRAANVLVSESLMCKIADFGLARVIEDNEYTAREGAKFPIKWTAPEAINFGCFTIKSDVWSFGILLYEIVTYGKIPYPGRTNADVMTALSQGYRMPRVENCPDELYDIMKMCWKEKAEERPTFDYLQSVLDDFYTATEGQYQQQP
Chain of Serine/threonine-protein kinase N1 (Q16512 2-942 limits assumed): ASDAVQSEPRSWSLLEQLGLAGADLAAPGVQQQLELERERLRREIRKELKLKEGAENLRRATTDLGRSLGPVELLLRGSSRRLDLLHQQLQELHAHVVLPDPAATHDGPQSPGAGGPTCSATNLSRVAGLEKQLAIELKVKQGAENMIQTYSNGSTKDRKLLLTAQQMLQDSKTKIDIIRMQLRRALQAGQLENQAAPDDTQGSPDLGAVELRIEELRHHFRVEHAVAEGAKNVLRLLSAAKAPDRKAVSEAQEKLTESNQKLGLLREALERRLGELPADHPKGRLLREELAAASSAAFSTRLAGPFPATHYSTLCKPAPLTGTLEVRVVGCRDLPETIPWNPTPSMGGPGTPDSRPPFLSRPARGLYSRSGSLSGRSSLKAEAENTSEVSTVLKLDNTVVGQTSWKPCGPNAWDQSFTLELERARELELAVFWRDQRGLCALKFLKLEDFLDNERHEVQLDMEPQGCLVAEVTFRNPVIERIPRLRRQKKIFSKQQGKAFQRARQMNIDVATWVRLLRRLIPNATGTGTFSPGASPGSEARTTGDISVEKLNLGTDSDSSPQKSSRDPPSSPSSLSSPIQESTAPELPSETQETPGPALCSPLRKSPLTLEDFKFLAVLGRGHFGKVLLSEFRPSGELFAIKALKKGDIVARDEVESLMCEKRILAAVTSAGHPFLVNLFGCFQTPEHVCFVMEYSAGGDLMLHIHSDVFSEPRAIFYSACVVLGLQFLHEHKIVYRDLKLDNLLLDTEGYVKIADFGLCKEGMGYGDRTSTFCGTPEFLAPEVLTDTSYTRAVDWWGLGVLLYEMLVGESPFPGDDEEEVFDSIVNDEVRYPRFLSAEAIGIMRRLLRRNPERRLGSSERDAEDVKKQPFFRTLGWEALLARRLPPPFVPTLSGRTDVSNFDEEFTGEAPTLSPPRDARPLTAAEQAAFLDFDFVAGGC
Chain of Calcium/calmodulin-dependent protein kinase kinase 2 (Homo sapiens) (Q96RR4 2-588 limits assumed): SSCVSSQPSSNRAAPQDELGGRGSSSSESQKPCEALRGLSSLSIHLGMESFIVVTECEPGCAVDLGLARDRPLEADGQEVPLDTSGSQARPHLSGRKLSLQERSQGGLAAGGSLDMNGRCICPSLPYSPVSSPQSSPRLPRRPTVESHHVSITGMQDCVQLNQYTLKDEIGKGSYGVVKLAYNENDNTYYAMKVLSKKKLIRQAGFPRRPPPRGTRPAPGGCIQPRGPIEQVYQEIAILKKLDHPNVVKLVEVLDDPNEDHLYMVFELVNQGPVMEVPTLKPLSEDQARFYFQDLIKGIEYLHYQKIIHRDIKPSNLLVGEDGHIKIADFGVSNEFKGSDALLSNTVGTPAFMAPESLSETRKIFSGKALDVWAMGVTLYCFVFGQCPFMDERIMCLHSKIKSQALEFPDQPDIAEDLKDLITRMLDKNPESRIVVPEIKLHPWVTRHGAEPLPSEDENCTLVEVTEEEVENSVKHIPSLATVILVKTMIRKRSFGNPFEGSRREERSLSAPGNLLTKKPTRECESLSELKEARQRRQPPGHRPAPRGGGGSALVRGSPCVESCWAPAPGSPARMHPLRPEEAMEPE
Chain of Angiopoietin-1 receptor (Homo sapiens) (Q02763 whole entry): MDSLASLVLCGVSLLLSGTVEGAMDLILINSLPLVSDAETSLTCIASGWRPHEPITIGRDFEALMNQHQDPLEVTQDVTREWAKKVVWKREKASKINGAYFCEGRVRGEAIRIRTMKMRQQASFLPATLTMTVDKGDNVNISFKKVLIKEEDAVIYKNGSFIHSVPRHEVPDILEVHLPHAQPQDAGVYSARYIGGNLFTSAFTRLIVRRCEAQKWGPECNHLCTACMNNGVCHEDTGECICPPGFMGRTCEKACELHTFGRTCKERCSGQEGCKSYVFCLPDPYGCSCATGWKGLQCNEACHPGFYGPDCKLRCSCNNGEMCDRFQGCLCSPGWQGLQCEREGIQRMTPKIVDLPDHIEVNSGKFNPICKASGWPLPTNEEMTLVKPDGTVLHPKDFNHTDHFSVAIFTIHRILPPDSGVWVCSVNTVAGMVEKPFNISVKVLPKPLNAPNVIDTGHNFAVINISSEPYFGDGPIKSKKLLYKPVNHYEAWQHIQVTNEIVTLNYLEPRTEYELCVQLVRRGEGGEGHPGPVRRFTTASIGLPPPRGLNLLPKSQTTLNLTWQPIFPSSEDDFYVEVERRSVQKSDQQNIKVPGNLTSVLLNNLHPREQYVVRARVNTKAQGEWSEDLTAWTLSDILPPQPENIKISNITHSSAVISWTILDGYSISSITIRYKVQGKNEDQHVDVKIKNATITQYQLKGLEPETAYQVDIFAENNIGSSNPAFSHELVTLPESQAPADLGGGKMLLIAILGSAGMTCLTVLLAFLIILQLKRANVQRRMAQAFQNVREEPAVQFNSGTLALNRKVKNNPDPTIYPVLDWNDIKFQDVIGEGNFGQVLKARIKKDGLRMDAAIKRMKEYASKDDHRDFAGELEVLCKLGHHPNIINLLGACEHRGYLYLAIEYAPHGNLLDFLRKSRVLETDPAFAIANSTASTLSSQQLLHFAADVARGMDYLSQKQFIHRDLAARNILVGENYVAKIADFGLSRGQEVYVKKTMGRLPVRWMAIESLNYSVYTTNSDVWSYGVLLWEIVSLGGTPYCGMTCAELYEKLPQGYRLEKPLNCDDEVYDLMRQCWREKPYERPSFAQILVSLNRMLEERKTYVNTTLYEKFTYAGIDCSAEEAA
Chain of Calcium/calmodulin-dependent protein kinase type 1D (Homo sapiens) (Q8IU85 whole entry, looked up): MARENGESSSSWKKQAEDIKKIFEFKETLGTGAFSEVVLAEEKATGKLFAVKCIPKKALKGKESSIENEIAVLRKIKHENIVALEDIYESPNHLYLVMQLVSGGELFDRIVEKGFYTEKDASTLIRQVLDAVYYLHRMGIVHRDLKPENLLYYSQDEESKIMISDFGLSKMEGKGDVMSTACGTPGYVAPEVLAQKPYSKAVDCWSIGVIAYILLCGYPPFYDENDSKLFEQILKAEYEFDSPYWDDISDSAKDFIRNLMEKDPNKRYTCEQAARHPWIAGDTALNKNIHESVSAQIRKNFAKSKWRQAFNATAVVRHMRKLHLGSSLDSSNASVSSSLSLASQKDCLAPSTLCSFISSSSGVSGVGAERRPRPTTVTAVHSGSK
Chain of Serine/threonine-protein kinase SIK3 (Homo sapiens) (Q9Y2K2 whole entry, looked up): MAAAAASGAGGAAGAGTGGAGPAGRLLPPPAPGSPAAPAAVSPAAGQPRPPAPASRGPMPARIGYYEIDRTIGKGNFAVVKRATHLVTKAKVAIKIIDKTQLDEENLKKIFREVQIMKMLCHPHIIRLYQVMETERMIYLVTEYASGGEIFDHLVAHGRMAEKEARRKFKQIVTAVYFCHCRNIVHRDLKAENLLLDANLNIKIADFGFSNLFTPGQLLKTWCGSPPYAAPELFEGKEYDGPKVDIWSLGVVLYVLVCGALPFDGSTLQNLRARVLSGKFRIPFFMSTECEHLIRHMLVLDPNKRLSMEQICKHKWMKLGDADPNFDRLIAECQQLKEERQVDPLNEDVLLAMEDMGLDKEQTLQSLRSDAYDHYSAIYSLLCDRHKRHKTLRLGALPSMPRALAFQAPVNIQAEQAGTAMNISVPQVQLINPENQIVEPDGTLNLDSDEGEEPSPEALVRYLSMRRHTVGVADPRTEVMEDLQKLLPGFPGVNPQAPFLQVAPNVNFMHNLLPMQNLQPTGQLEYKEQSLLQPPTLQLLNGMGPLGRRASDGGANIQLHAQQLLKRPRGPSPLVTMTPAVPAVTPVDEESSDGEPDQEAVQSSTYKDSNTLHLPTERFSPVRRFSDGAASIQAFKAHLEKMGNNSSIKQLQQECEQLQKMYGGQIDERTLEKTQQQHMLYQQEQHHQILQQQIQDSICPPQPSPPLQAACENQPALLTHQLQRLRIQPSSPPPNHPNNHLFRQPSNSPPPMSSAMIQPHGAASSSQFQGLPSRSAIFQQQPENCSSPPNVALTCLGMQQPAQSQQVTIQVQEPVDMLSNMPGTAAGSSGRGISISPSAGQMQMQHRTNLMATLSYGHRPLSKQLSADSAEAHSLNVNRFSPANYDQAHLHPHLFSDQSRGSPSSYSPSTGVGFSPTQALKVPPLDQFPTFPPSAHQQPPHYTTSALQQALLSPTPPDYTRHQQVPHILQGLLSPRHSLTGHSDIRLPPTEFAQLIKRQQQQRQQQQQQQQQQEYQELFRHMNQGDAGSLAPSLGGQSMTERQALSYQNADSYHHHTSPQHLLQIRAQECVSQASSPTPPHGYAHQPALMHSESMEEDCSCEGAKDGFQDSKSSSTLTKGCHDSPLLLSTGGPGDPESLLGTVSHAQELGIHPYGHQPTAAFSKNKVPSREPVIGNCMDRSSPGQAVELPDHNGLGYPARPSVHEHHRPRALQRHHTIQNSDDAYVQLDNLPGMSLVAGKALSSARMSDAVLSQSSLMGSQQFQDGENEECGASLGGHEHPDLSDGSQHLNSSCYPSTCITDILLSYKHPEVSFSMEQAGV

Regarding `CCN(CC)CCCCNc1ncc2cc(-c3cc(OC)cc(OC)c3)c(NC(=O)NC(C)(C)C)nc2n1`, in assay [1], the % of control worked out at 100%. Consider `Cc1cc(F)c(C(=O)Nc2cccc(-c3nncn3C(C)C)n2)cc1-n1cnc(C2CC2)c1`, for which the % of control in assay [2] came out at 100%. `CNC(=O)Nc1ccc(-c2nc(N3CC4CCC(C3)O4)c3cnn(C4CCC5(CC4)OCCO5)c3n2)cc1`: the % of control in [3] was 100%.

The compound `Cc1cc([C@@H](C)Nc2ccccc2C(=O)O)c2nc(N3CCOCC3)cc(=O)n2c1` [AZD-6482] came in with a % of control in assay [4] of 95%.

As to `CN(C(=O)c1cnn2cccnc12)c1cc2c(cc1N1CCOCC1)C(=O)N(C[C@@H](F)C(C)(C)O)C2`, in assay [5], the dTM was -0.7 K. As for `C=CC(=O)Nc1cccc(C(=O)Nc2ccc(Nc3cc(-c4[nH]c(SC)nc4C)ccn3)cc2)c1`, the % of control in assay [6] turned out to be 95%; in assay [7] (at 1 µM) it was 100%; in [7] (at 5 µM), 91%. `CN(C)C/C=C/C(=O)Nc1ccc(C(=O)N2CCCC(Nc3ncc(Cl)c(-c4c[nH]c5ccccc45)n3)C2)cc1` (stereo not drawn) returned a % of control in [8] of 100%. As for `COc1cc(Nc2nc(C)cc(-c3cnn4nc(OC)ccc34)n2)cc(C(F)(F)F)c1`, the % of control in assay [9] was found to be 100%. `O[C@H]1CC[C@H](Nc2ncc3nc(Nc4c(F)cc(F)cc4F)n([C@H]4CCOC4)c3n2)CC1` showed a % of control in assay [10] of 32%. In turn, `CCC(=O)N1CCN(c2ccc(-n3c(=O)ccc4cnc5ccc(-c6cnc7ccccc7c6)cc5c43)cc2C(F)(F)F)CC1` had a % of control in assay [11] of 90%. In assay [12], `CN(C)CCCOc1ccc(-c2cc(NCCCn3cccn3)nc(S(C)(=O)=O)n2)cc1` yielded a dTM of less than 2 K.
